Laboratory results reported in patent publication US10729749B2, “Neurodegenerative disorders” (priority 2014, dated 2020).
Ends that are not written are not given here.

Key:
Assay type in all cases: cell-based
PC12 cells [1] = test: Acetylcholinesterase activity assay (AChE release from PC12 cells, Ellman reagent); settings: % AChE release compared to untreated control
Method: AChE activity was measured using the Ellman reagent that measures the presence of thiol groups as a result of AChE activity. Cells were plated the day before the experiment as for the cell viability assay. […] The Ellman reagent was prepared as a mixture of the 3 solutions in a ratio 33(A):3(B):4(C). Absorbance measurements were taken at regular intervals (3, 10, 30 and 60 mins) across experiments at 405 nm.

[2] = Cell viability assay (Cell Counting Kit-8); settings: % PC12 cell viability compared to untreated control;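 note: PC12 cells in 96-well plates, WST-8 turned into formazan by cellular dehydrogenases, absorbance read at 450 nm after 2 h with the reagent, signal proportional to living cell number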
Source text: A Cell Counting Kit-8 (CCK-8) was used as an improvement of the SRB technique used before. By utilizing the highly water-soluble tetrazolium salt WST-8, CCK-8 produces a water-soluble formazan dye upon reduction in the presence of an electron carrier. WST-8 is reduced by dehydrogenases in cells to give a yellow colored product (formazan), which is soluble in the tissue culture medium. The amount of the formazan dye generated by the activity of dehydrogenases in cells is directly proportional to the number of living cells. PC12 cells are plated in 200 μl of complete growth medium the day before the experiment in 96 well plates. […] Subsequently, 100 μl of growth medium is removed and 10 μl of CCK-8 (Cell Counting Kit-8) solution is added. The plate is incubated for 2 hours in the incubator and then placed in the absorbance plate reader. The absorbance must be measured at 450 nm.

PC12 cells [3] = test: Calcium fluorometry (Fluo-8, acetylcholine-induced calcium influx); set-up: Calcium: scale not given here; settings: for Calcium: calcium influx value, control based on acetylcholine alone; for dose-dependent effect on calcium potentiation against T30: dose-dependent experiments, FIGS. 8 and 9
Source text: A final criterion used to determine active peptides is the amount of calcium influx into PC12 cells caused by the peptide. The calcium influx value can be calculated as described in the methods section. The calcium value corresponds to the result from the experiment when applying T30 or Aβ alone or in conjunction with the small peptides. The control value for these experiments is based on the calcium influx induced by acetylcholine alone. Preferably, the peptide, derivative or analogue thereof has a calcium influx value of less than 120, and more preferably a value of 97-120.
PC12 cells are plated in 200 μl of complete growth medium the day before the experiment in 96 well plates. On the day of the experiment, the Fluo-8 solution (Abcam) is prepared (as per provider protocol). Subsequently, 100 μl of growth medium is removed and 100 μl of Fluo-8 solution is added. Treatments with T30 or Aβ in conjunction with NBP-14 or small peptides are added and incubated for 30 minutes in the incubator and 30 minutes room temperature.
After 1 hour, the plate is placed in the fluorescence plate reader (Fluostar). Before reading the fluorescence, acetylcholine (ACh) 100 μM is prepared and placed in the Fluostar injector. For each well, the reading will be formed by a basal fluorescence followed by acetylcholine injection that will induce an increase of calcium via nicotinic receptors. The effects of the peptides are then evaluated.

PC12 cells [4] = test: Value coefficient (AChE release vs PC12 cell viability) and filter selection; settings: for Value AChE/Viability: 1.0 to 1.1 = protective, control = 1; for neuroprotective agent against T30 when all four filters are taken into consideration / neuroprotective agent against Aβ when all four filters are taken into consideration: filters: value coefficient, in silico binding, calcium influx, peptide size
Source text: AChE release vs PC12 cell viability (for which there is a significant negative correlation); • 2. In silico binding to the allosteric site of the α7 nicotinic-receptor; • 3. Calcium influx into PC12 cells; and • 4. Peptide size.

[5] = T30 5 μM + small peptide 0.5 μM

Substance | AChE (PC12 cells [1]; [5]) [%] | viability [2, 5] [%] | Calcium (PC12 cells [3]; T30 + small peptide) | Value AChE/Viability (PC12 cells [4]; [5]) | neuroprotective agent against T30 when all four filters are taken into consideration (PC12 cells [4]) | AChE (PC12 cells [1]; Aβ 5 μM + small peptide 0.5 μM) [%] | viability ([2]; Aβ 5 μM + small peptide 0.5 μM) [%] | Calcium (PC12 cells [3]; Aβ + small peptide) | Value AChE/Viability (PC12 cells [4]; Aβ 5 μM + small peptide 0.5 μM) | dose-dependent effect on calcium potentiation against T30 (PC12 cells [3]) | neuroprotective agent against Aβ when all four filters are taken into consideration (PC12 cells [4])
AEFHRWSS [NBP-804] | 107.69 | 108 | 106.7 | 1 | neuroprotective agents against T30 | – | – | – | – | – | –
AEFHRWSSYMV [NBP-1104] | 102.36 | 111 | 119.82 | 1 | – | – | – | – | – | – | –
EFHRWSS [NBP-705, EFHRWSS] | 94.07 | 91 | 111.98 | 1.03 | neuroprotective agents against T30 | – | – | – | – | – | –
EFHRWSSYM [NBP-905] | – | – | – | – | – | 106.42 | 97.2 | 194.22 | 1.09 | – | –
EFHRWSSYMVHW [NBP-1205] | 95.79 | 89.4 | 132.71 | 1.07 | – | – | – | – | – | – | –
EFHRWSSYMVHWKA [NBP-1405] | 91.57 | 83.9 | 100.59 | 1.09 | – | – | – | – | – | – | –
FHRWSS [NBP-606] | 107.88 | 103 | 131.85 | 1.05 | – | – | – | – | – | – | –
FHRWSSYMVHWK [NBP-1206] | – | – | – | – | – | 96.92 | 93.6 | 127.27 | 1.04 | – | –
FHRWSSYMVHWKAE [NBP-1406] | 92.78 | 86.6 | 101.06 | 1.07 | – | – | – | – | – | – | –
HRWSSY [NBP-607] | – | – | – | – | – | 97.53 | 94.9 | 168.97 | 1.03 | – | –
HRWSSYM [NBP-707] | 98.35 | 98.5 | 120.17 | 1 | – | – | – | – | – | – | –
HRWSSYMVHWK [NBP-1107] | 93.13 | 93.1 | 95.43 | 1 | – | – | – | – | – | – | –
HRWSSYMVHWKA [NBP-1207] | – | – | – | – | – | 94.30 | 87.4 | 261.22 | 1.08 | – | –
HRWSSYMVHWKAE [NBP-1307] | – | – | – | – | – | 94.29 | 92.5 | 218.25 | 1.02 | – | –
HRWSSYMVHWKAEF [NBP-1407] | 94.49 | 90.5 | 111.71 | 1.04 | – | – | – | – | – | – | –
HWKAEF [NBP-601, HWKAEF] | 100.99 | 93.2 | 118.37 | 1.08 | neuroprotective agents against T30 | – | – | – | – | protect against T30 effects | –
HWKAEFHR [NBP-801] | – | – | – | – | – | 108.63 | 102 | 168.66 | 1.06 | – | –
HWKAEFHRWSS [NBP-1101] | 91.9 | 91.9 | 86.58 | 1 | – | – | – | – | – | – | –
HWKAEFHRWSSY [NBP-1201] | – | – | – | – | – | 94.84 | 93.1 | 114.35 | 1.02 | – | –
KAEFH [NBP-503] | – | – | – | – | – | 117.63 | 110 | 195.67 | 1.07 | – | –
KAEFHRWSSYMV [NBP-1203] | – | – | – | – | – | 99.63 | 95.5 | 192.38 | 1.04 | – | –
KAEFHRWSSYMVH [NBP-1303] | – | – | – | – | – | 96.73 | 91.2 | 106.33 | 1.06 | – | –
MVHWKA [NBP-613, MVHWKA] | 103.45 | 103 | 102.29 | 1 | neuroprotective agents against T30 | – | – | – | – | protect against T30 effects | –
MVHWKAEFHR [NBP-1013] | 91.79 | 85.3 | 181.12 | 1.08 | – | – | – | – | – | – | –
MVHWKAEFHRWS [NBP-1213] | – | – | – | – | – | 93.73 | 90.8 | 146.97 | 1.03 | – | –

Substance | AChE (PC12 cells [1]; [5]) [%] | viability [2, 5] [%] | Calcium (PC12 cells [3]; T30 + small peptide) | Value AChE/Viability (PC12 cells [4]; [5]) | neuroprotective agent against T30 when all four filters are taken into consideration (PC12 cells [4]) | AChE (PC12 cells [1]; Aβ 5 μM + small peptide 0.5 μM) [%] | viability ([2]; Aβ 5 μM + small peptide 0.5 μM) [%] | Calcium (PC12 cells [3]; Aβ + small peptide) | Value AChE/Viability (PC12 cells [4]; Aβ 5 μM + small peptide 0.5 μM) | dose-dependent effect on calcium potentiation against T30 (PC12 cells [3]) | neuroprotective agent against Aβ when all four filters are taken into consideration (PC12 cells [4])
MVHWKAEFHRWSS [NBP-1313] | 93.64 | 89 | 118.94 | 1.05 | – | – | – | – | – | – | –
MVHWKAEFHRWSSY [NBP-1413] | – | – | – | – | – | 99.85 | 95.2 | 125.28 | 1.05 | – | –
RWSSY [NBP-508] | – | – | – | – | – | 106.06 | 97.6 | 120.72 | 1.09 | – | –
RWSSYMV [NBP-708, RWSSYMV] | 97.79 | 97.8 | 97.04 | 1 | neuroprotective agents against T30 | – | – | – | – | – | –
RWSSYMVHWKA [NBP-1108] | – | – | – | – | – | 82.74 | 77.7 | 392.11 | 1.06 | – | –
RWSSYMVHWKAEFH [NBP-1408] | 93.64 | 93.6 | 80.25 | 1 | – | – | – | – | – | – | –
SSYMV [NBP-510] | – | – | – | – | – | 104.25 | 101 | 167.56 | 1.03 | – | –
SSYMVHW [NBP-710, SSYMVHW] | – | – | – | – | – | 108.85 | 109 | 114.33 | 1 | – | agents against Aβ
SSYMVHWK [NBP-810] | – | – | – | – | – | 96.22 | 95.3 | 156.05 | 1.01 | – | –
SSYMVHWKAEFH [NBP-1210] | – | – | – | – | – | 98.18 | 97.5 | 127.83 | 1.01 | – | –
SSYMVHWKAEFHRW [NBP-1410] | 93.51 | 93.5 | 120.09 | 1 | – | 93.51 | 93.5 | 160.54 | 1 | – | –
SYMVHW [NBP-611, SYMVHW] | – | – | – | – | – | 88.60 | 82.2 | 114.39 | 1.08 | – | agents against Aβ
SYMVHWK [NBP-711] | – | – | – | – | – | 108.57 | 106 | 148.17 | 1.02 | – | –
SYMVHWKAEF [NBP-1011] | – | – | – | – | – | 84.13 | 81.7 | 161.87 | 1.03 | – | –
SYMVHWKAEFHRW [NBP-1311] | – | – | – | – | – | 93.51 | 86.1 | 137.63 | 1.09 | – | –
VHWKAE [NBP-614] | – | – | – | – | – | 85.05 | 77.7 | 124.34 | 1.09 | – | –
VHWKAEFHRWSS [NBP-1214] | – | – | – | – | – | 89.28 | 85.5 | 217.64 | 1.04 | – | –
VHWKAEFHRWSSY [NBP-1314] | – | – | – | – | – | 104.08 | 97.9 | 130.85 | 1.06 | – | –
WKAEFH [NBP-602] | 112.32 | 108 | 169.86 | 1.04 | – | – | – | – | – | – | –
WKAEFHRWSSY [NBP-1102] | 104.31 | 104 | 89.28 | 1 | – | – | – | – | – | – | –
WKAEFHRWSSYMVH [NBP-1402] | – | – | – | – | – | 99.85 | 91.6 | 127.81 | 1.09 | – | –
WSSYM [NBP-509] | – | – | – | – | – | 106.20 | 102 | 363.48 | 1.04 | – | –
WSSYMVH [NBP-709] | – | – | – | – | – | 108.99 | 102 | 288.61 | 1.07 | – | –
WSSYMVHWKA [NBP-1009] | – | – | – | – | – | 101.23 | 97.5 | 255.80 | 1.04 | – | –
